Measurements from patent publication US5428031A, “Methods of treating cardiac arrhythmia” (priority 1993, dated 1995).

Assays:
[1] = molecular target: T1, IKs (slowly activating delayed rectifier K+ current) (Cavia porcellus, UniProt O70344); assay: cell-based; assay type: cell-based, guinea pig
T1 construct: Guinea pig ventricular myocytes were isolated; endogenous in cells; host or cells: isolated guinea pig ventricular myocytes
Procedure: Current amplitude is measured as the difference from the initial instantaneous current level following the capacitance discharge after changing the transmembrane voltage from -50 mV to +50 mV, to the current level at the end of the 1 second voltage step. Normally, an increase in the current amplitude occurs as a function of time and voltage during depolarization of the cardiac cell membrane and this increasing current has been defined as the delayed rectifier K^+ current (IK). […] IKs current occurs as a consequence of time- and voltage-dependent opening of ionic channels or pores in the cardiac cell membrane that allow the relatively selective flow of potassium ions (K^+) from the inside to the outside of the cell, that is, down the voltage and concentration gradient for K^+ ions that is inherent in cardiac cells. Thus, block of the IKs current ultimately reflects block of certain ion channels or pores in the cardiac cell membrane. However, the single pores or channels thought to underlie the IKs current have yet to be measured or identified at the single channel level.
Guinea pig ventricular myocytes were isolated using a modification of the procedure described by Mitra R and Morad M., "A Uniform Enzymatic Method for Dissociation of Myocytes from Hearts and Stomachs of Nertilorates", Am. J. Physiol. […] Excised hearts were perfused through the aorta (retrograde fashion) at a rate of 10 ml/min with oxygenated, warmed (37° C.) solutions described below. […] The head was then perfused with the same nominally Ca^2+ -free solution containing 150 units/ml Type II collagenase (Worthington) and 0.5 units/ml Type XIV protease (Sigma) for 8 minutes. This perfusate was followed by a Tyrode's solution containing 0.2 mM CaCl2 (without enzymes) for 5 minutes. The digested ventricles were cut into small pieces and gently shaken until cells were visibly dispersed. The cells were stored at room temperature until use, within 8 hours after isolation.
The suction microelectrode technique described by Giles, W. R. and Shibata, E. F., "Voltage clamp of bull-frog cardiac pacemaker cells: a quantitative, analysis of potassium currents". J. Physiol. […] Microelectrodes were made by using a two stage puller from square bore (1.0 mm o.d.) borosilicate capillary tubing. […] After establishing whole-cell recording mode, negative pressure was maintained on the pipette using a 1 ml gas-tight syringe attached via air tight tubing to the suction port of the microelectrode holder. This minimized dialysis of the cell with the pipette solution.
To record K^+ currents, the cells were bathed in a Ca^2+ -free Tyrode's :solution containing […] nisoldipine. […] A List EPC-7 clamp amplifier was used to voltage clamp the isolated cells. […] A variety of voltage pulse protocols were used to measure Ca^2+ current and three types of K^+ currents: inward rectifier (IK1), rapidly activating delayed rectifier (IKr) and the slowly activating delayed rectifier (IKs). Sanguinetti M. C. and Jurkiewicz, N. K., "Two components of cardiac delayed rectifier K^+ current: Differential sensitivity to block by Class III antiarrhythmic agents". […] Data was analyzed as % block from control membrane currents.
Nisoldipins was prepared as a 4 mM stock solution in polyethylne glycol 200. Compounds tested in this series were prepared as 10 mM stock solutions in polyethylene glycol 400 or dimethyl sulfoxide.

ICa (Ca2+ current) = assay: voltage clamp measurement of Ca2+ current in isolated guinea pig ventricular myocytes; assay type: cell-based; conditions: 0.1 μM
Procedure: (§1) Guinea pig ventricular myocytes were isolated using a modification of the procedure described by Mitra R and Morad M., "A Uniform Enzymatic Method for Dissociation of Myocytes from Hearts and Stomachs of Nertilorates", Am. J. Physiol. 249:H1056-60 (1985). Excised hearts were perfused through the aorta (retrograde fashion) at a rate of 10 ml/min with oxygenated, warmed (37° C.) solutions described below. The heart was initially perfused for 7 minutes with a Tyrode's solution containing, in mM: 132 NaCl, 4 KCl, 1.2 MgCl2, 10 HEPES (formal name N-2-Hydroxyethylpiperazine-N-2-ethanesulfonic acid), 5 glucose, pH=7.2. The head was then perfused with the same nominally Ca^2+ -free solution containing 150 units/ml Type II collagenase (Worthington) and 0.5 units/ml Type XIV protease (Sigma) for 8 minutes. This perfusate was followed by a Tyrode's solution containing 0.2 mM CaCl2 (without enzymes) for 5 minutes. The digested ventricles were cut into small pieces and gently shaken until cells were visibly dispersed. […]
(§2) The suction microelectrode technique described by Giles, W. R. and Shibata, E. F., "Voltage clamp of bull-frog cardiac pacemaker cells: a quantitative, analysis of potassium currents". […]
To record K^+ currents, the cells were bathed in a Ca^2+ -free Tyrode's :solution containing […] nisoldipine. […] Data was analyzed as % block from control membrane currents. […]

[2] = tested on: guinea pig ventricular myocytes; assay: current-clamp action potential duration (APD90) in isolated myocytes, 0.2 Hz; assay type: cell-based; conditions: Cavia porcellus, Ventricular myocyte, 4 cells
Procedure: as §1, §2
To record action potentials, single cells were bathed in 1.8 mM Ca^2+ -Tyrode's solution. […] Data were analyzed as percent (%) change in action potential duration at 90% of repolarization (APD90). […]

Row | Structure (SMILES) | selective block of IKs ([1]; selective: 50% block of IKs at 1 μM or less and at least 10 fold lower than for IKr and/or IK1) | IC50 [1] [nM] | block of IKs ([1]; 5 μM) | effect on ICa (ICa (Ca2+ current)) | percent increase in APD90 at 5 µM [2] [%]
1 | CN1C(=O)[C@H](NC(=O)/C=C/c2ccc(Cl)cc2Cl)N=C(c2ccccc2)c2ccccc21 [Example 26, E-(+)-N-[(3R)-2,3-Dihydro-1-methyl-2-oxo-5-phenyl-1H-1,4-benzo-diazepin-3-yl]-3-(2,4-dichlorophenyl)-2-propenamide] | selective blocker of IKs | – | – | – | –
2 | Cc1cccc(NC(=O)N[C@@H]2N=C(c3ccccc3)c3ccccc3N(C)C2=O)c1 [Compound 4, (R)-N-(2,3-dihydro-1-methyl-2-oxo-5-phenyl-1H-1,4-benzodiazepin-3-yl)-N'-(3-methylphenyl)urea] | – | 215 | Complete block | Little or no effect | 202
